Measured values reported in patent US20260108455A1, “DEVICE FOR SUSTAINED CONTROLLED RELEASE OF A […] ACTIVE SUBSTANCE AND USES THEREOF” (Hylomorph AG, priority 2022, published 2026).
Counter-ions that a name gives are not always drawn.

What was measured:
[1] = Drug elution testing (in vitro release) of PLGA films; type: physicochemical; conditions: all prototypes, phase 2
Excerpt: The main goals are summarized below: • 1. Prepare placebo films with multiple grades of PLGA polymers (Table 1) using solvent casting method. Evaluate both single and dual layer film designs. • 2. […] Create HPLC assay and drug elution method based on provided information. Optimize method for use in formulation development.

[2] = Solubility in water (distilled and deionized water); type: physicochemical; conditions: 20 °C, pH 7, water, neutral pH, i.e. pH of 7 at room temperature
Protocol: Solubility is a chemical property of a molecule in a specific solvent which depends on the chemistry of the two and on the environmental conditions of temperature and pH. […] This at room temperature (20 deg) or body temperature (37 deg) and a pH of 7. Solubility is measured in distilled and deionized water and is given in mg/mL.

Row | degradation during elution testing [1] | solubility [2] [µg/mL] | SMILES
1 | Significant degradation | – | CN(C)c1ccc(O)c2c1C[C@H]1C[C@H]3[C@H](N(C)C)C(O)=C(C(N)=O)C(=O)[C@@]3(O)C(O)=C1C2=O [Minocycline HCl, Minocycline Hydrochloride]
2 | – | ≤ 2500 | CO[C@H]1/C=C/O[C@@]2(C)Oc3c(C)c(O)c4c(O)c(c(/C=N/N5CCN(C)CC5)c(O)c4c3C2=O)NC(=O)/C(C)=C\C=C\[C@H](C)[C@H](O)[C@@H](C)[C@@H](O)[C@@H](C)[C@H](OC(C)=O)[C@@H]1C [Rifampicin]
